Key:
MEL-202 cells = assay: Cell Titer-Glo cell viability, MEL-202 cells; type: cell-based, human
Description: (§1) Luminescence was read using a plate reader (TECAN). Average luminescence of cells treated with DMSO was set to 100% and the % viable cells were calculated accordingly. Synergy/antagonism was analyzed using Combenefit software. […] Interactions between various combinations were evaluated using Bliss, HSA, and Loewe synergy/antagonism models. […] Cell viability was measured by CTG three days/five days after treatment.
(§2) After 24 hrs, the media was changed to 2% FBS/RPMI media. Further, the cell lines were screened for sensitivity to the PKC inhibitor, IDE196 alone or in combination with Hepatocyte growth factor (HGF) (Peprotech); at increasing doses according to Table 1 using a TECAN digital dispenser.

92.1 cells = assay: Cell Titer-Glo cell viability, 92.1 cells; type: cell-based, human
Description: as §1, §2

MM28 cells = assay: Cell Titer-Glo cell viability, MM28 cells; type: cell-based, human
Description: as §1, §2

[1] = test system: cMET, MAPK, PI3K and PKC signaling pathways in MEL-202 cells; assay: Pharmacodynamic western blot, MEL-202 cells; type: cell-based, human
Description: (§3) For all experiments, cells were seeded 24 h before treatment at 2.5×10^6 cells in 10 cm^2 tissue culture plates in 10% RPMI media. For IDE196-HGF combinations, cells were treated with the IDE196 and HGF combinations in 2% RPMI media for 2 hrs according to Table 3. For IDE196-MET inhibitor experiments, 24 h after seeding, the media was replaced with the appropriate inhibitor combinations in 2% RPMI media in the presence of 1.23-3.7 ng/ml HGF for 2 h, according to Table 4.
(§4) For all experiments, cells were washed with ice cold PBS and protein lysates were prepared by lysing cells in a RIPA buffer containing protease and phosphatase inhibitors. Protein samples (15ug/well) were separated on 4-20% Bis-Tris SDS gels and electroblotted to nitrocellulose membranes using iBlot (Invitrogen). The membranes were incubated for 1b in Superblock buffer at RT, followed by overnight incubation with primary antibody at 4° C. The primary antibodies Phospho-Met (Tyr1234/1235) (3077S), cMET (3148S), Phospho-Akt (Ser473) (4060S), Akt (pan) (2920S), Phospho-MARCKS (Ser159/163) (11992S), MARCKS (5607S), PKCδ (9616S), Phospho-p44/42 MAPK (ERK1/2) (Thr202/Tyr204) (4377S), pRAS40 were obtained from Cell Signaling. Total ERK (ab184699) and PKC delta (phospho S299) (ab133456) antibodies were from Abcam. After three washes in PBST, the membrane was incubated with HRP-conjugated secondary antibody for 1 h at RT, washed thrice in PBST, and detected using enhanced chemiluminescence (Biorad Chemidoc XRS).

[2] = test system: cMET, MAPK, PI3K and PKC signaling pathways in 92.1 cells; assay: Pharmacodynamic western blot, 92.1 cells; type: cell-based, human
Description: as §3, §4

[3] = test system: cMET, MAPK, PI3K and PKC signaling pathways in MM28 cells; assay: Pharmacodynamic western blot, MM28 cells; type: cell-based, human
Description: as §3, §4

[4] = patient; cited from earlier work
[5] = presence of HGF, IDE196 alone and in combination with crizotinib
[6] = presence of HGF, IDE196 alone, up to highest concentrations
[7] = presence of HGF, crizotinib alone or in combination with IDE196
[8] = at or above 3.7 ng/mL HGF, all concentrations of IDE196, HSA, Loewe, Bliss
[9] = dose-dependent, not inhibited by addition of IDE196

## CC1(N)CCN(c2cccnc2NC(=O)c2nc(-c3ncccc3C(F)(F)F)cnc2N)CC1 [IDE196, 3-amino-N-(3-(4-amino-4-methylpiperidin-1-yl)pyridin-2-yl)-6-(3-(trifluoromethyl)pyridin-2-yl)pyrazine-2-carboxamide]
MEL-202 cells; Homo sapiens, Mel202, 72 h, IDE196 alone, day 3, N=3, read-out: inhibition of cell viability EC50
  EC50: 250 nM
92.1 cells; Homo sapiens, 72 h, IDE196 alone, day 3, N=3, read-out: inhibition of cell viability EC50
  EC50: 113 nM
MM28 cells; Homo sapiens, 120 h, IDE196 alone, day 5, N=3, read-out: inhibition of cell viability EC50
  EC50: 342 nM
[1]; IDE196 treatment alone
  pMARCKS and pPKC-delta: dose-dependent decrease
[1]; absence of HGF, 2 h
  dose at which pERK was inhibited: above 400 nM
[1]; presence of HGF, IDE196 alone
  effect on pAKT or pPRAS40: no effect
[1]; [5]
  pMARCKS or pPKCδ: dose-dependent decrease
[1]; [6]
  pERK inhibition: did not inhibit
[2]; IDE196 treatment alone
  pMARCKS and pPKC-delta: dose-dependent decrease
[2]; absence of HGF, 2 h
  dose at which pERK was inhibited: above 400 nM
[2]; presence of HGF, IDE196 alone
  effect on pAKT or pPRAS40: no effect
[2]; [5]
  pMARCKS or pPKCδ: dose-dependent decrease
[2]; [6]
  pERK inhibition: did not inhibit
[3]; IDE196 treatment alone
  pMARCKS and pPKC-delta: dose-dependent decrease
[3]; absence of HGF, 2 h
  dose at which pERK was inhibited: above 400 nM
[3]; presence of HGF, IDE196 alone
  effect on pAKT or pPRAS40: no effect
[3]; [5]
  pMARCKS or pPKCδ: dose-dependent decrease
[3]; [6]
  pERK inhibition: did not inhibit

## C[C@@H](Oc1cc(-c2cnn(C3CCNCC3)c2)cnc1N)c1c(Cl)ccc(F)c1Cl [crizotinib, reference compound]
[1]; [7]
  HGF induced pMET, pERK, pAKT and pPRAS40 levels: strongly inhibited
[2]; presence of HGF, higher concentrations of crizotinib alone or in combination with IDE196
  pERK, pAKT and pPRAS40: modest decrease
[3]; [7]
  HGF induced pMET, pERK, pAKT and pPRAS40 levels: strongly inhibited

## CNC(=O)c1ccc(-c2cnc3ncc(Cc4ccc5ncccc5c4)n3n2)cc1F [capmatinib, reference compound]
MEL-202 cells; 1.23 ng/ml HGF, all doses of capmatinib, starting at 80 nM IDE196
  synergy with IDE196 on cell viability: high synergy
92.1 cells; 1.23 ng/ml HGF, capmatinib, any dose combination
  synergy with IDE196 on cell viability: did not synergize
MM28 cells; 1.23 ng/ml HGF, capmatinib, all the doses
  synergy with IDE196 on cell viability: high synergy
[4]
  half-life: about 6.5 hours

## HGF: Hepatocyte growth factor (Peprotech), the endogenous ligand for the extracellular cMET receptor
MEL-202 cells; HGF alone
  cell viability on exposure to exogeneous HGF: increased cell viability significantly
MEL-202 cells; [8]
  antagonism of IDE196 induced growth inhibition by HGF: high antagonism
92.1 cells; 1.23 to 33.33 ng/ml HGF, HSA, Loewe, Bliss
  antagonism of IDE196 induced growth inhibition by HGF: modest antagonism
92.1 cells; HGF alone
  cell viability on exposure to exogeneous HGF: not
MM28 cells; HGF alone
  cell viability on exposure to exogeneous HGF: increased cell viability significantly
MM28 cells; [8]
  antagonism of IDE196 induced growth inhibition by HGF: high antagonism
[1]; [9]
  pERK (MAPK signaling), pAKT and pPRAS40 (PI3K signaling) on addition of HGF: induced
[2]; [9]
  pERK (MAPK signaling), pAKT and pPRAS40 (PI3K signaling) on addition of HGF: induced
[3]; [9]
  pERK (MAPK signaling), pAKT and pPRAS40 (PI3K signaling) on addition of HGF: induced

Reference: patent US20250017921A1, “PHARMACEUTICAL COMBINATION AND TUMOR TREATMENT” (IDEAYA Biosciences Inc., priority 2020, published 2025)
